Experimental data taken from patent publication US6750235B1, “Pramipexole as a treatment for cocaine craving” (The General Hospital Corporation, priority 1999, dated 2004).

Test: Case report: treatment of cocaine craving using pramipexole (patient)
Type: in vivo, human
Conditions: one patient; lamotrigine up to 200 mg, before pramipexole was added

Nc1nnc(-c2cccc(Cl)c2Cl)c(N)n1 [lamotrigine]
mood (depression): modest improvement
